# Values quoted from earlier work as cited in US9248196B2, “Rebamipide complexes and cocrystals” (NUFORMIX LIMITED, priority 2011, dated 2016).
# Where two headings read alike, the source gives them in different places.
smiles,measurement,setting,value
"O=C(NC(Cc1cc(=O)[nH]c2ccccc12)C(=O)O)c1ccc(Cl)cc1 (stereo not drawn) [Rebamipide, 2-(4-chlorobenzamido)-3-(2-oxo-1,2-dihydroquinolin-4-yl)propanoic acid]",solubility,in ethanol,very slightly soluble
same,solubility,in methanol,very slightly soluble
same,solubility,in water,practically insoluble
